Measured values: patent US8030320B2, “Derivatives of 1-OXO-1,2-dihydroisoquinoline-5-carboxamides and of 4-OXO-3,4-dihydroquinazoline-8-carboxamides, preparation thereof and application thereof in therapeutics” (Sanofi-Aventis, priority 2007, dated 2011)
pIC50: −log10 of the molar value. Counter-ions that a name gives are not always drawn.

Experiments:
[1] = biological target: T1, purified recombinant form of human BACE1 aspartyl protease (Homo sapiens, UniProt P56817); assay: BACE-1 FRET assay, in vitro inhibition of β-secretase activity; assay type: biochemical; conditions: peptide substrate 0.25 μM, enzyme 10 nM, sodium acetate buffer pH 4.5, 60 min, ambient temperature; read-out: IC50 (concentration of product giving 50% inhibition of the enzyme activity)
T1 construct: hexahistidine (His6) (C); made in house; host or cells: Drosophila cells
Procedure: The tests consisted in measuring the in vitro inhibition of the β-secretase activity by the compounds of the invention, via the use of the “BACE-1 FRET Assay Kit, Red” available from PanVera-Invitrogen Inc. The β-secretase activity measured corresponds to that of a purified recombinant form of human BACE1 aspartyl protease (the latter comprising a hexahistidine tag at the C-terminal position) produced by expression in Drosophila cells. The purified enzyme is conditioned in TRIS buffer (18 mM) at pH 7.5 containing NaCl (0.45M), MnCl2 (0.9 mM), CaCl2 (0.9 mM), α-D-methylmannoside and 10% glycerol, and stored at −80° C. until use. The BACE1 activity is measured from the cleavage of a fluorogenic peptide substrate sold by Invitrogen (PanVera BACE1/β-secretase FRET assay kit, Red; reference P2985), based on the principle of fluorescence resonance energy transfer (FRET) and corresponding to the Rh-EVNLDAEFK-Quencher sequence; the cleavage of the peptide is measured from the increase of the fluorescent signal emitted by the rhodamine derivative (Rh). The test is carried out in a 96-well microplate in order to determine the inhibition of the enzyme activity by the products of the invention. […] When the incubation is finished, the fluorescence is measured in a spectrofluorimeter, at the excitation wavelength of about 543 nm and emission wavelength of about 585 nm. […]

T1 sequence (P56817 46-501): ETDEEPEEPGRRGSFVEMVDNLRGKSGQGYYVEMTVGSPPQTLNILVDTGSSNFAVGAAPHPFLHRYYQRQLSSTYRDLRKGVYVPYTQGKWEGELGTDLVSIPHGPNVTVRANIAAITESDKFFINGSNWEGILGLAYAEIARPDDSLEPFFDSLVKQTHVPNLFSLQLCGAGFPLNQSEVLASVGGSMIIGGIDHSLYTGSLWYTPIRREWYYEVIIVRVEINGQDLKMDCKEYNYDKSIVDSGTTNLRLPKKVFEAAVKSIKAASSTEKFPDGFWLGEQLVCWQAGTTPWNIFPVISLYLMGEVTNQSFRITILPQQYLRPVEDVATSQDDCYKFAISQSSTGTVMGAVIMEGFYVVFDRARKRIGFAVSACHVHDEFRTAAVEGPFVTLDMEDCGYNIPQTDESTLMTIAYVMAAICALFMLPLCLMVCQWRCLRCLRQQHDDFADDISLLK

| SMILES | pIC50 [1] | melting point [°C] |
| --- | --- | --- |
| CCCC(CCC)n1ccc2c(C(=O)N[C@@H](Cc3ccccc3)[C@H](O)CNCc3cccc(C(F)(F)F)c3)cccc2c1=O [Compound 1, N-[(1S,2R)-1-benzyl-2-hydroxy-3-{[3-(trifluoromethyl)benzyl]-amino}propyl]-1-oxo-2-(1-propylbutyl)-1,2-dihydroisoquinoline-5-carboxamide hydrochloride (1:1)] | 5.59 | – |
| CCCC(CCC)n1cnc2c(C(=O)N[C@@H](Cc3ccccc3)[C@H](O)CNCc3cccc(C(F)(F)F)c3)cccc2c1=O.Cl [Compound 3, N-[(1S,2R)-1-benzyl-2-hydroxy-3-{[3-(trifluoromethyl)benzyl]-amino}propyl]-4-oxo-3-(1-propylbutyl)-3,4-dihydroquinazoline-8-carboxamide hydrochloride (1:1)] | 6.08 | 152 |
